Patent US20200163984A1, “USE OF ISOVALERYL SPIRAMYCIN I, II AND/OR III IN MANUFACTURING MEDICAMENT FOR TREATING AND/OR PREVENTING TUMOR, AND MEDICAMENT” (SHENYANG FUYANG PHARMACEUTICAL TECHNOLOGY CO., LTD., priority 2017, published 2020)

Key:
[1] = tested on: transplanted tumor of mouse H22 liver cancer; experiment: Transplanted tumor of mouse H22 liver cancer; conditions: for Tumor Volume (mm3) (d30): d 30; for Body Weight (g) (d1) / Body Weight (g) (d 7): mouse, in vivo
Method: The H22 cell strains cryopreserved in liquid nitrogen were resuscitated in Kunming mice. After 3 generations, the ascites of Kunming mice were taken and placed in a 50 ml centrifuge tube in which 10 ml of 0.9% normal saline was added, and then centrifuging was performed at 1000 rpm for 5 min at room temperature, and the obtained supernatant was removed. Then 10 ml of 0.9% normal saline was added to the tube to blow and mix well, and then the mixture was diluted to 5×10^6 live cells/ml with normal saline after counting. The tube was stored in ice water, and 75% ethanol was used to disinfect the skin under the right armpits of the mice. Each Kunming mouse was soon inoculated subcutaneously with 0.2 ml of the cells at the armpit of the right forelimb.
In the H22 liver cancer model, the mice inoculated with the tumor were randomly divided into groups with 10 mice in each group on the next day of inoculation. The groups included: a model control group, a positive drug cyclophosphamide control group (CTX, 26 mg/kg), isovaleryl spiramycin I groups with doses of 13, 26 and 52 mg/kg; isovaleryl spiramycin II groups with doses of 13, 26 and 52 mg/kg; isovaleryl spiramycin III groups with doses of 13, 26 and 52 mg/kg. Each group was continuously administered intragastrically for 7 days with a dose of 20 ml/kg.
The tumor-bearing mice were weighed and sacrificed the next day after the last administration. The subcutaneous tumors were dissected and weighed. The average tumor weight of each group is calculated, and the tumor inhibition rate is calculated.
Tumor inhibition rate=(1−T/C)×100%
T: average tumor weight of the drug-administered group; C: average tumor weight of the blank control group.

[2] = tested on: transplanted tumor of human renal cell adenocarcinoma cell 769-P; experiment: 769-P transplanted tumor in nude mice; conditions: for Tumor Volume (mm3) (d 1): d1
Method: (§1) Then cell concentration was adjusted to 1×10^7/ml with matrigel, then each nude mouse was inoculated subcutaneously with 0.2 ml of cells at its right armpit and recorded as the first day of inoculation. When the tumor grows to be greater than or equal to 100 mm^3, the mice were randomly divided into 11 groups with 6 mice in each group: a model group, a cyclophosphamide group, isovaleryl spiramycin I groups with doses of 25, 50 and 100 mg/kg, isovaleryl spiramycin II groups with doses of 25, 50 and 100 mg/kg, and isovaleryl spiramycin III groups with doses of 25, 50 and 100 mg/kg. Each group was continuously administered intragastrically for 30 days with a dose of 20 ml/kg. The mice were sacrificed the next day after drug withdrawal and the indicators were tested. The long diameter and short diameter of the tumor, and the weight of each mouse were recorded every 3 days from drug administration to nude mouse sacrifice.
(§2) The body weight of the nude mice and the long diameter (a) and short diameter (b) of the transplanted tumor were measured every 3 days, and the tumor volume (v), relative tumor volume (RTV) and relative tumor proliferation rate (T/C) are calculated respectively according to the following formulas, wherein V=a×b^2/2; RTV=V/V0 (V0 is the tumor volume before administration, V is the tumor volume before sacrifice), and T/C (%)=treatment group RTV/model control group RTV×100%.
(§3) Each mouse was weighed and sacrificed. After the tumor was completely stripped off from the body of the mouse, the non-tumor tissues such as blood stains and fat were removed to weigh the tumor and calculate the tumor growth inhibition rate. The average tumor weight of each group of mice is used as an indicator of efficacy. Tumor growth inhibition rate (%)=(1−the average tumor weight of the treatment group/the average tumor weight of the model group)×100%.

[3] = tested on: transplanted tumor of human cervical cancer cell HeLa; experiment: HeLa transplanted tumor in nude mice; conditions: for Tumor Volume (mm3) (d 1): d1
Method: as §1, with “HeLa cells in a logarithmic growth phase were taken and subjected to a trypan blue exclusion experiment showing that the cell viability was more than 95%, then the cells were subjected to trypsinization, centrifugation, and supernatant removal. Then cell” for “Then cell”, “and the body weight of” for “and the weight of”
as §2, §3

[4] = 769-P, high dose (100 mg/kg in method) i.g. 30 days
[5] = 769-P, low dose (25 mg/kg in method) i.g. 30 days
[6] = 769-P, medium dose (50 mg/kg in method) i.g. 30 days
[7] = HeLa, high dose (100 mg/kg in method) i.g. 30 days
[8] = HeLa, low dose (25 mg/kg in method) i.g. 30 days
[9] = HeLa, medium dose (50 mg/kg in method) i.g. 30 days

mouse weight compared with the model group ([2]; mouse, in vivo): no significant changes
mouse weight compared with the model group ([3]; mouse, in vivo): no significant changes
SMILES: CCC(=O)O[C@@H]1CC(=O)O[C@H](C)C/C=C/C=C/[C@H](O[C@H]2CC[C@H](N(C)C)[C@@H](C)O2)[C@H](C)C[C@H](CC=O)[C@H](O[C@@H]2O[C@H](C)[C@@H](O[C@H]3C[C@@](C)(O)[C@@H](OC(=O)CC(C)C)[C@H](C)O3)[C@H](N(C)C)[C@H]2O)[C@H]1OC [Isovaleryl spiramycin III, isovaleryl spiramycin III]
growth of H22 liver cancer in mice ([1]; 13, 26 and 52 mg/kg i.g. 7 days): significantly inhibit
Relative Tumor Proliferation Rate (T/C) ([1]; dose 12.5 mg/kg): 69.68
Relative Tumor Volume (RTV) ([1]; dose 12.5 mg/kg): 6.92 ± 1.88
Tumor Volume (mm3) (d 1) ([1]; dose 12.5 mg/kg): 121.58 ± 13.44 mm3
Tumor Volume (mm3) (d30) ([1]; dose 12.5 mg/kg): 824.36 ± 143.90 mm3
Inhibition Rate (%) ([1]; dose 13 mg/kg): 33.55%
Tumor ([1]; dose 13 mg/kg): 1.01 ± 0.22 g
Relative Tumor Proliferation Rate (T/C) ([1]; dose 25 mg/kg): 56.90
Relative Tumor Volume (RTV) ([1]; dose 25 mg/kg): 5.65 ± 1.74
Tumor Volume (mm3) (d 1) ([1]; dose 25 mg/kg): 118.16 ± 21.72 mm3
Tumor Volume (mm3) (d30) ([1]; dose 25 mg/kg): 650.32 ± 171.23 mm3
Inhibition Rate (%) ([1]; dose 26 mg/kg): 44.08%
Tumor ([1]; dose 26 mg/kg): 0.85 ± 0.34 g
Relative Tumor Proliferation Rate (T/C) ([1]; dose 50 mg/kg): 43.45
Relative Tumor Volume (RTV) ([1]; dose 50 mg/kg): 4.31 ± 1.65
Tumor Volume (mm3) (d 1) ([1]; dose 50 mg/kg): 122.15 ± 49.44 mm3
Tumor Volume (mm3) (d30) ([1]; dose 50 mg/kg): 468.19 ± 110.04 mm3
Inhibition Rate (%) ([1]; dose 52 mg/kg): 51.97%
Tumor ([1]; dose 52 mg/kg): 0.73 ± 0.45 g
Body Weight (g) (d1) ([1]; 13 mg/kg): 23.67 ± 3.73 g
Body Weight (g) (d 7) ([1]; 13 mg/kg): 26.33 ± 1.43 g
Body Weight (g) (d1) ([1]; 26 mg/kg): 24.13 ± 1.46 g
Body Weight (g) (d 7) ([1]; 26 mg/kg): 27.47 ± 1.21 g
Body Weight (g) (d1) ([1]; 52 mg/kg): 24.32 ± 1.12 g
Body Weight (g) (d 7) ([1]; 52 mg/kg): 27.35 ± 0.80 g
Inhibition Rate (%) ([2]; 769-P nude mice, 25 mg/kg): 40.87%
Relative Tumor Proliferation Rate (T/C) ([2]; 769-P nude mice, 25 mg/kg): 61.59%
Relative Tumor Volume (RTV) ([2]; 769-P nude mice, 25 mg/kg): 11.37 ± 1.469
Tumor Weight ([2]; 769-P nude mice, 25 mg/kg): 1.22 ± 0.46 g
Tumor Volume (mm3) (d 1) ([2]; 769-P nude mice, 25 mg/kg): 146.32 ± 43.02 mm3
Tumor Volume (mm3) (d30) ([2]; 769-P nude mice, 25 mg/kg): 1663.32 ± 445.50 mm3
Inhibition Rate (%) ([2]; 769-P nude mice, 50 mg/kg): 60.50%
Relative Tumor Proliferation Rate (T/C) ([2]; 769-P nude mice, 50 mg/kg): 51.59%
Relative Tumor Volume (RTV) ([2]; 769-P nude mice, 50 mg/kg): 9.52 ± 1.67
Tumor Weight ([2]; 769-P nude mice, 50 mg/kg): 0.82 ± 0.06 g
Tumor Volume (mm3) (d 1) ([2]; 769-P nude mice, 50 mg/kg): 180.43 ± 51.70 mm3
Tumor Volume (mm3) (d30) ([2]; 769-P nude mice, 50 mg/kg): 1717.76 ± 524.33 mm3
Inhibition Rate (%) ([2]; 769-P nude mice, 100 mg/kg): 64.46%
Relative Tumor Proliferation Rate (T/C) ([2]; 769-P nude mice, 100 mg/kg): 36.55%
Relative Tumor Volume (RTV) ([2]; 769-P nude mice, 100 mg/kg): 6.56 ± 0.28
Tumor Weight ([2]; 769-P nude mice, 100 mg/kg): 0.73 ± 0.08 g
Tumor Volume (mm3) (d 1) ([2]; 769-P nude mice, 100 mg/kg): 104.38 ± 12.92 mm3
Tumor Volume (mm3) (d30) ([2]; 769-P nude mice, 100 mg/kg): 684.88 ± 62.28 mm3
Relative Tumor Proliferation Rate (T/C) [2, 4]: 35.55%
tumor growth inhibition rate [2, 4]: 64.46%
Relative Tumor Proliferation Rate (T/C) [2, 5]: 61.59%
tumor growth inhibition rate [2, 5]: 40.87%
tumor volume and relative tumor volume compared with the model group ([2]; 769-P, low, medium and high doses, P<0.05): significantly lower
Relative Tumor Proliferation Rate (T/C) [2, 6]: 51.59%
tumor growth inhibition rate [2, 6]: 60.50%
Body Weight (g) (d1) ([2]; mouse, in vivo, 25 mg/kg): 23.09 ± 1.90 g
Body Weight (g) (d30) ([2]; mouse, in vivo, 25 mg/kg): 22.72 ± 0.78 g
Body Weight (g) (d1) ([2]; mouse, in vivo, 50 mg/kg): 22.90 ± 1.00 g
Body Weight (g) (d30) ([2]; mouse, in vivo, 50 mg/kg): 21.43 ± 1.08 g
Body Weight (g) (d1) ([2]; mouse, in vivo, 100 mg/kg): 20.49 ± 1.14 g
Body Weight (g) (d30) ([2]; mouse, in vivo, 100 mg/kg): 22.28 ± 1.72 g
Inhibition Rate (%) ([3]; HeLa nude mice, 12.5 mg/kg): 39.33%
Relative Tumor Proliferation Rate (T/C) ([3]; HeLa nude mice, 12.5 mg/kg): 62.92%
Relative Tumor Volume (RTV) ([3]; HeLa nude mice, 12.5 mg/kg): 1.43 ± 1.47
Tumor Weight ([3]; HeLa nude mice, 12.5 mg/kg): 1.17 ± 0.64 g
Tumor Volume (mm3) (d 1) ([3]; HeLa nude mice, 12.5 mg/kg): 123.36 ± 21.45 mm3
Tumor Volume (mm3) (d30) ([3]; HeLa nude mice, 12.5 mg/kg): 1281.92 ± 242.71 mm3
Inhibition Rate (%) ([3]; HeLa nude mice, 25 mg/kg): 52.41%
Relative Tumor Proliferation Rate (T/C) ([3]; HeLa nude mice, 25 mg/kg): 52.05%
Relative Tumor Volume (RTV) ([3]; HeLa nude mice, 25 mg/kg): 8.63 ± 3.37
Tumor Weight ([3]; HeLa nude mice, 25 mg/kg): 0.92 ± 0.49 g
Tumor Volume (mm3) (d 1) ([3]; HeLa nude mice, 25 mg/kg): 115.2 ± 27.18 mm3
Tumor Volume (mm3) (d30) ([3]; HeLa nude mice, 25 mg/kg): 1007.46 ± 481.36 mm3
Inhibition Rate (%) ([3]; HeLa nude mice, 50 mg/kg): 61.68%
Relative Tumor Proliferation Rate (T/C) ([3]; HeLa nude mice, 50 mg/kg): 39.33%
Relative Tumor Volume (RTV) ([3]; HeLa nude mice, 50 mg/kg): 6.52 ± 0.73
Tumor Weight ([3]; HeLa nude mice, 50 mg/kg): 0.75 ± 0.11 g
Tumor Volume (mm3) (d 1) ([3]; HeLa nude mice, 50 mg/kg): 113.35 ± 20.84 mm3
Tumor Volume (mm3) (d30) ([3]; HeLa nude mice, 50 mg/kg): 727.16 ± 46.92 mm3
Relative Tumor Proliferation Rate (T/C) [3, 7]: 61.68%
tumor growth inhibition rate [3, 7]: 61.68%
Relative Tumor Proliferation Rate (T/C) [3, 8]: 39.33%
tumor growth inhibition rate [3, 8]: 39.33%
tumor volume and relative tumor volume compared with the model group ([3]; HeLa, low, medium and high doses, P<0.05): significantly lower
Relative Tumor Proliferation Rate (T/C) [3, 9]: 52.41%
tumor growth inhibition rate [3, 9]: 52.41%
Body Weight (g) (d1) ([3]; mouse, in vivo, 12.5 mg/kg): 21.30 ± 0.64 g
Body Weight (g) (d30) ([3]; mouse, in vivo, 12.5 mg/kg): 20.67 ± 0.45 g
Body Weight (g) (d1) ([3]; mouse, in vivo, 25 mg/kg): 20.87 ± 0.78 g
Body Weight (g) (d30) ([3]; mouse, in vivo, 25 mg/kg): 20.80 ± 0.55 g
Body Weight (g) (d1) ([3]; mouse, in vivo, 50 mg/kg): 21.09 ± 0.51 g
Body Weight (g) (d30) ([3]; mouse, in vivo, 50 mg/kg): 21.10 ± 0.52 g
